In ChEMBL document CHEMBL5154936, “Scaffold Hopping Strategy to Identify Prostanoid EP4 Receptor Antagonists for Cancer Immunotherapy” (J Med Chem, 2022):

How the values were obtained:
[1] = Volume of distribution at steady state in BALB/c mouse at 1 mg/kg, iv measured upto 24 hrs by LC-MS/MS analysis; assay type: ADME, organism-based; details: in vivo, read-out: Vdss
[2] = target: T1, CYP2B6 (Homo sapiens, UniProt P20813); experiment: Inhibition of CYP2B6 (unknown origin) at 20 uM; assay type: ADME
T1 sequence (P20813 whole entry): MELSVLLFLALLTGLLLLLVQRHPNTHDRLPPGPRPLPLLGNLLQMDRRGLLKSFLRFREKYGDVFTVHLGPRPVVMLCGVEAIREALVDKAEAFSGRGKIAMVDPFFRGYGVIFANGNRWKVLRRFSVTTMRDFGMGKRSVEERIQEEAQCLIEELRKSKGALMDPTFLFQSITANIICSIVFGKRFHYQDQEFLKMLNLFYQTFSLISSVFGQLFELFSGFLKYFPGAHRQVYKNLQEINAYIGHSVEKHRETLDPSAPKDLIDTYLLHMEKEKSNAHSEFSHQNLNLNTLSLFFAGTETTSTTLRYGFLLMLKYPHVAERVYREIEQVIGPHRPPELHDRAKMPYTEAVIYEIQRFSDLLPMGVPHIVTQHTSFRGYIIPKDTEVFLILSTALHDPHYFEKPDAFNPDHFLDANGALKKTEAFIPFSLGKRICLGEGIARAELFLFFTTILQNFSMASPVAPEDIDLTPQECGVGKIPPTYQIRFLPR

[3] = AUC (0 to infinity) in BALB/c mouse at 1 mg/kg, iv measured upto 24 hrs by LC-MS/MS analysis; assay type: ADME, organism-based; set-up: time < 24 hrs, dose 1 mg/kg, route iv; details: in vivo
[4] = Cmax in BALB/c mouse at 5 mg/kg, po measured upto 24 hrs by LC-MS/MS analysis; assay type: ADME, organism-based; set-up: dose 5 mg/kg, time < 24 hrs, route po; details: in vivo
[5] = AUC (0 to 24 hrs) in BALB/c mouse at 5 mg/kg, po measured upto 24 hrs by LC-MS/MS analysis; assay type: ADME, organism-based; set-up: dose 5 mg/kg, time < 24 hrs, route po; details: in vivo
[6] = AUC (0 to infinity) in BALB/c mouse at 5 mg/kg, po measured upto 24 hrs by LC-MS/MS analysis; assay type: ADME, organism-based; set-up: dose 5 mg/kg, time < 24 hrs, route po; details: in vivo
[7] = Oral bioavailability in BALB/c mouse at 5 mg/kg measured upto 24 hrs by LC-MS/MS analysis; assay type: ADME, organism-based; details: in vivo
[8] = Toxicity in BALB/c mouse allografted with mouse CT26 cells assessed as change in body weight at 75 mg/kg, po administered once a day measured after 14 days; assay type: organism-based; details: in vivo, 336 h, time 14 day
[9] = system: CT26; experiment: Antitumor activity against mouse CT26 cells allografted in BALB/c mouse assessed as median survival period at 75 mg/kg, po administered once a day for 14 days by Kaplan-Meier method (reference value: 15 days); assay type: functional; details: time 14 day
[10] = system: CT26; experiment: Antitumor activity against mouse CT26 cells allografted in BALB/c mouse assessed as median survival period at 75 mg/kg, po administered once a day for 14 days in presence of anti-PD-1 antibody by Kaplan-Meier method (reference value: 15 days); assay type: functional; details: time 14 day
[11] = Toxicity in BALB/c mouse allografted with mouse CT26 cells assessed as change in body weight at 75 mg/kg, po administered once a day for 14 days in presence of anti-PD-1 antibody; assay type: organism-based; details: in vivo, 336 h, time 14 day
[12] = system: EMT6; experiment: Cytotoxicity against mouse EMT6 cells assessed as reduction in cell viability incubated for 72 hrs by CCK-8 assay; details: EMT6, 72 h
[13] = system: 3LL cell line; experiment: Cytotoxicity against mouse 3LL cells assessed as reduction in cell viability incubated for 72 hrs by CCK-8 assay
[14] = target: Prostaglandin E2 receptor EP4 subtype (Homo sapiens, UniProt P35408); experiment: Antagonist activity at human EP4 receptor transfected in CHO/Galpha16 cells preincubated for 15 mins followed by PGE2 addition by calcium flux assay; assay type: functional, cell-based
Chain of Prostaglandin E2 receptor EP4 subtype (P35408 whole entry): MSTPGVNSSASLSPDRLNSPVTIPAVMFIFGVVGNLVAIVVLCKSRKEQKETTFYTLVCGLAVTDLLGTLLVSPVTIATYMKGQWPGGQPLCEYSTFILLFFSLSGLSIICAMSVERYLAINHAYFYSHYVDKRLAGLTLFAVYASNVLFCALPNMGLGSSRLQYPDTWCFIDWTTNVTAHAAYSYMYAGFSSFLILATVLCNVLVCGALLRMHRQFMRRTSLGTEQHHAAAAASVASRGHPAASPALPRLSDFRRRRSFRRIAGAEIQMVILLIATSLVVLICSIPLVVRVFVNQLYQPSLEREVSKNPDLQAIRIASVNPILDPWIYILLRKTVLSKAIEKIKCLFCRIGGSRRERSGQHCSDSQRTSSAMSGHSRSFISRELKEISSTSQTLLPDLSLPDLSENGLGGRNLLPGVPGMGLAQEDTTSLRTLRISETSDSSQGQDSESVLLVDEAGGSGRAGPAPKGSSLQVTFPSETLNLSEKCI

[15] = system: CT26; experiment: Cytotoxicity against mouse CT26 cells assessed as reduction in cell viability incubated for 72 hrs by CCK-8 assay; details: CT26, 72 h
[16] = system: Panc02; experiment: Cytotoxicity against mouse Panc02 cells assessed as reduction in cell viability incubated for 72 hrs by CCK-8 assay; details: Panc02, 72 h
[17] = Cytotoxicity against HEK293 cells assessed as reduction in cell viability incubated for 72 hrs by CCK-8 assay; assay type: toxicity, cell-based; details: human

Structure (SMILES) | Vd [1] | inhibition at 20 µM [2] | AUC(0-inf) [3] | Cmax [4] | AUC(0-t) at 24 h [5] | AUC(0-inf) [6] | bioavailability [7] | Activity [8] | MST [9] | MST [10] | Activity [11] | IC50 [12] | IC50 [13] | IC50 [14] | IC50 [15] | IC50 [16] | IC50 at 72 h [17]
O=C(O)c1ccc(CNC(=O)c2c(Cc3ccc(F)cc3)sc3c2CCOC3)cc1 | 6.14 L/kg | 78% | 735 ng·h/mL | 982 ng/mL | 2100 ng·h/mL | 2220 ng·h/mL | 61.4% | Non-Toxic | 26 days | 41 days | Non-Toxic |  |  |  |  |  | 
C[C@H](NC(=O)c1c(Cc2cccc(C(F)(F)F)c2)sc2c1CCOC2)c1ccc(C(=O)O)cc1 | 7.39 L/kg | 75% | 683 ng·h/mL | 664 ng/mL | 1680 ng·h/mL | 1690 ng·h/mL | 52.3% |  |  |  |  | > 100 µM | > 100 µM | 0.0017 µM | > 100 µM | > 100 µM | > 100 µM
